Experimental data from paper PMC5017749, “Preclinical Metabolism, Pharmacokinetics and In Vivo Analysis of New Blood-Brain-Barrier Penetrant Fingolimod Analogues: FTY720-C2 and FTY720-Mitoxy” (PLoS ONE, 2016).

Experiments:
[1] = Metabolic stability (intrinsic clearance) in rat liver microsomes; assay type: in vitro ADME, rat (Sprague-Dawley); details: for microsomal CLint at 1 μM: Sprague-Dawley, pH 7.4, 0.1 mg/mL protein, mean of two determinations; for microsomal CLint at 1 μM / intrinsic clearance interpreted in words / percent of the remaining compound: rat liver microsomes; for percent of the remaining compound: after 60 minute incubation; for Clint in rat liver microsomes relative to human liver microsomes: rat vs human liver microsomes
Protocol: (§1) Liver microsomal incubations contained 0.1mg/mL microsomal proteins and 1 μM of FTY720-C2 or FTY720-Mitoxy in 100 mM potassium phosphate buffer (pH 7.4) ± an NADPH regenerating system (3.5 mM glucose 6-phosphate, 1.3 mM NADP^+, and 0.4 units/mL glucose-6-phosphate dehydrogenase). Following incubations, reactions were terminated for analysis after 0, 10, 20, 30, and 60 min by the addition of acetonitrile containing C17 sphingosine (300 ng/mL) as the internal standard. Samples were vigorously mixed and centrifuged at 3,400 rpm for 10 min to pellet precipitated proteins. An aliquot of each supernatant was used for LC/MS analysis, for determination of the remaining FTY720-C2 and FTY720-Mitoxy. Similar incubations were performed using a cocktail solution containing 0.2 μM midazolam and 1 μM diclofenac to determine the metabolic activity of the microsomes as an additional control.
(§2) Samples resulting from liver microsomal incubations were analyzed by LC-MS/MS. Aliquots of the supernatants were injected onto an X-Bridge C18 column (2.1 × 50 mm, 3.5-μm particles) (Waters, Milford, MA), preceded by a SecurityGuard C18 guard column (4.0 × 2.0 mm; Phenomenex Inc.). Separations were accomplished with a gradient of 0.1% acetic acid in water (v/v) versus 0.1% acetic acid in acetonitrile: methanol (75:25, v/v) at a rate of 0.8 mL/min. The eluents were further applied into an equipped API 4000 QTrap mass spectrometer (AB Sciex, Foster City, CA) with electrospray ionization (ESI) interface by two coupled LC-10 AT pumps. Peak area ratios of FTY720-C2 or FTY720-Mitoxy against the C17 sphingosine internal standard were used to determine the amount of parent remaining compared to that at 0 min. The percent of FTY720-C2 or FTY720-Mitoxy remaining was calculated by dividing the peak area ratio obtained at each time point by that obtained at 0 min. The in vitro intrinsic clearance (CLint) was calculated by linear regression of the log percent of compound remaining versus time plots using Microsoft Excel, two independent experiments (n = 2) were performed for each compound and species. Then, the mean and standard deviation (SD), of two values for each condition, were calculated using Microsoft Excel with the “AVERAGE” and “STDEV” functions, respectively.

[2] = Metabolic stability (intrinsic clearance) in human liver microsomes; assay type: in vitro ADME; details: for percent of the remaining compound: after 60 minute incubation; for microsomal CLint at 1 μM: pH 7.4, 0.1 mg/mL protein, mean of two determinations
Protocol: as §1, §2

[3] = Metabolite profiling and identification in rat hepatocytes; assay type: in vitro ADME, rat (Sprague Dawley); design: key to Source (peak identified in rat hepatocytes): R = Rat; hr = Human; lowercase letter indicates low abundance; h: lowercase letter indicates low abundance; details: for phosphorylated metabolites / parent peak after 2 hr incubation: rat hepatocytes; for parent peak after 2 hr incubation: 1 μM
Protocol: Cryopreserved hepatocytes were grown in culture and incubations were performed to generate samples to measure the formation of FTY720-C2 and FTY720-Mitoxy metabolites. Incubations of 1 mL medium containing 1 million cells and 1 μM of FTY720-C2 and FTY720-Mitoxy were conducted at 37° C in a 5% CO2 incubator for 0, 1 and 2 hr, with gentle shaking. Positive control incubations used a cocktail solution containing 10 μM testosterone and 10 μM diclofenac performed for 0, 1 and 2 hr, under similar conditions to confirm the metabolic activity of the hepatocytes. The reactions were terminated by adding 2 mL acetonitrile containing 0.02% formic acid, and thoroughly mixing with gentle vortexing. Samples were transferred into 6 mL vials and stored in the freezer (-70°C) overnight for protein precipitation. Following overnight precipitations, samples were centrifuged at 3,000 rpm for 10 min to pellet proteins. Supernatants were transferred into clean 6 mL vials and evaporated to dryness using a TurboVap concentrator system. Samples were reconstituted using 600 μL 20% acetonitrile in water, briefly vortexed to resuspend, then aliquoted for LC-MS/MS analysis. Controls incubations also included “No drug control” and “no cell control” samples treated in a similar manner as test article samples.
Metabolite profiling and identification experiments were conducted by LC-MS/MS, composed of an HPLC system consisting of an Agilent Technologies 1200 Series Model G1322A Degasser, Agilent Technologies 1200 Series Model G1312A Binary Pump, Shimadzu HTc autosampler, and Valco Model E60 Flow Diversion Valve, and coupled to an API 4000 mass spectrometer. Separations were accomplished on a Gemini C18 column (150 × 2.0 mm, 5-μm particles; Phenomenex Inc., Torrance, CA), preceded by a SecurityGuard C18 guard column (4.0 × 2.0 mm; Phenomenex Inc.). A two-component mobile phase, consisted of a linear gradient of water containing 0.5% formic acid (v/v) and methanol:acetonitrile (1:1, v/v) containing 0.5% formic acid (v/v), was pumped at 0.3 mL/min. The first 4 min of flow was diverted away from the mass spectrometer. Analysis of the positive control samples was conducted with an HPLC system consisting of two Shimadzu LC-10ATvp pumps and a LEAP Pal autosampler. Separations were accomplished on a Luna C8(2) column (50 × 2.0 mm, 3-μm particles; Phenomenex Inc., Torrance, CA), preceded by a SecurityGuard C18 column (4.0 × 2.0 mm; Phenomenex Inc.). Separation was accomplished with a gradient of water containing 0.2% formic acid and 0.012% NH4OH (v/v) versus acetonitrile at an initial rate of 0.7 mL/min. An API 4000 QTrap mass spectrometer (AB Sciex, Foster City, CA) was used for analysis of positive control samples. Each mass spectrometer used was equipped with an electrospray ionization source and operated in the positive ionization mode. Metabolite identification experiments were performed by recording full scan mass spectral data (Q1MS) for all samples, and selected samples were analyzed to obtain product ion spectra (MS/MS) of test article metabolites identified in the full scan mass spectral data.

Compound | microsomal CLint at 1 μM [1] [µL/min/mg] | intrinsic clearance interpreted in words [1] | percent of the remaining compound [1] [%] | Clint in rat liver microsomes relative to human liver microsomes [1] | intrinsic clearance interpreted in words [2] | percent of the remaining compound [2] [%] | microsomal CLint at 1 μM [2] [µL/min/mg] | Source (peak identified in rat hepatocytes) ([3]; FTY720-C2 incubation, Table 4) | phosphorylated metabolites [3] | parent peak after 2 hr incubation [3] | Source (peak identified in rat hepatocytes) ([3]; FTY720-Mitoxy incubation, Table 5)
CCCCCCCCc1ccc(CCC(CO)(CO)NC(C)=O)cc1 [FTY720-C2, N-(1-hydroxy-2-(hydroxymethyl)-4-(4-octylphenyl)butan-2-yl)acetamide] | 79.5 ± 1.41 | high | 1.0 ± 0 | ~ 4 fold | moderate | 33.5 ± 4.5 | 18.3 ± 2.4 | R | never detected | drastically diminished | 
CCCCCCCCc1ccc(CCC(CO)(CO)NC(=O)CC[P+](c2ccccc2)(c2ccccc2)c2ccccc2)cc1 [FTY720-Mitoxy, N-(1-hydroxy-2-(hydroxymethyl)-4-(4-octylphenyl)butan-2-yl)-3’-triphenylphosphoniumpropanamide] | 7.8 ± 1.98 | low | 65.5 ± 4.9 | around half | moderate | 35.5 ± 2.3 | 17.5 ± 1.7 |  | never detected | most FTY720-Mitoxy was still unchanged | R
